Data from patent US20140121272A1, “DEODORIZATION OF PEROXYCARBOXYLIC ACIDS USING CHAOTROPIC AGENTS” (ECOLAB USA INC., priority 2012, published 2014).

Assay: pH of Oxonia Active after addition of the additive
Assay type: physicochemical
Conditions: for effect of the additive on the product's pH: Oxonia Active; for pH: additive dissolved in Oxonia Active
Protocol: The ability to remove odor from a concentrated peracetic acid product was evaluated. Oxonia Active is a concentrated peracetic acid product available from Ecolab, Inc. (St. Paul, Minn.). The commercial product has about 6% peracetic acid and 22% hydrogen peroxide.
Urea was dissolved into the Oxonia Active at various molar ratios to the peracetic acid level and the resulting effect on the product's odor was observed.

pH (molar POAA/additive 1/0.25)	Molecule	effect of the additive on the product's pH	pH (molar POAA/additive 0.5/1)	pH (molar POAA/additive 1/0.50)	pH (molar POAA/additive 1/1)
1.10	NC(N)=O [Urea]	did not significantly change	1.38	1.10	1.16
–	Ammonium carbonate	raised the pH	7.00	3.64	5.90
